Reference: ChEMBL document CHEMBL1909046, “DrugMatrix in vitro pharmacology data”

Tests used:
Calcitonin receptor = biological target: T1, Calcitonin receptor (Homo sapiens, UniProt P30988); assay type: cell membranes, Membrane; settings: t47d; also: in other assays of this panel Not Active means under 50% inhibition at 10 µM
T1 sequence (P30988 whole entry): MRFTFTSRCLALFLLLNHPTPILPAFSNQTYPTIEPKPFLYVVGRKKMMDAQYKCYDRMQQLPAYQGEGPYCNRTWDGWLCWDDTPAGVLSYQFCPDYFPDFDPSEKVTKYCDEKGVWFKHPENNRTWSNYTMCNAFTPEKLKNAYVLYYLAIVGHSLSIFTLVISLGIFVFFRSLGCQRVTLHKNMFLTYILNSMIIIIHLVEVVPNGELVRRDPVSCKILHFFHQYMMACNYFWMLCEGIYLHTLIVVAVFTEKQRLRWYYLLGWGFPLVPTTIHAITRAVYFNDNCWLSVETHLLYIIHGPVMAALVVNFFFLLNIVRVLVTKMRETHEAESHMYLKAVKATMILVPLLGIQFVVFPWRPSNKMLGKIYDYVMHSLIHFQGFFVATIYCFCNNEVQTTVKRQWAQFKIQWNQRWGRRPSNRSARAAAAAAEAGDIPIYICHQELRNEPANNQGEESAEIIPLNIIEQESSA

[1] = DRUGMATRIX: Calcium Channel Type L, Phenylalkylamine radioligand binding (ligand: [3H] (-)-Desmethoxyverapamil (D-888)); assay type: cell membranes, Rattus norvegicus, Wistar, Brain, Membrane; settings: Not Active = under 50% inhibition at 10 µM
Nitric oxide synthase 1 = Nitric oxide synthase 1 (Rattus norvegicus, UniProt P29476); assay type: tissue-based, Cerebellum; also: in other assays of this panel Not Active means under 50% inhibition at 10 µM
Adenosine receptor A3 = biological target: T2, Adenosine receptor A3 (Homo sapiens, UniProt P0DMS8); assay type: cell membranes, CHO-K1, Membrane;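 also: radioligand binding assay with AB-MECA serving as the labeled ligand; in other assays of this panel Not Active means under 50% inhibition at 10 µM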
T2 sequence (P0DMS8 whole entry): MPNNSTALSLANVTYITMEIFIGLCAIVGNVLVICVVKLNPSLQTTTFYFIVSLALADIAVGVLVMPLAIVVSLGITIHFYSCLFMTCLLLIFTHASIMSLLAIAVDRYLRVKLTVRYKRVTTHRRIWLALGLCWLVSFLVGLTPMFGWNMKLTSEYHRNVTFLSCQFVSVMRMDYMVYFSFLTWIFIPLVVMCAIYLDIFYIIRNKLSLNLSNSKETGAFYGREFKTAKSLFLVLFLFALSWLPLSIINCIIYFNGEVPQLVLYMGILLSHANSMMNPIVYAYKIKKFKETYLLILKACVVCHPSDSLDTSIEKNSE

Nitric oxide synthase 1, sequence (P29476 whole entry): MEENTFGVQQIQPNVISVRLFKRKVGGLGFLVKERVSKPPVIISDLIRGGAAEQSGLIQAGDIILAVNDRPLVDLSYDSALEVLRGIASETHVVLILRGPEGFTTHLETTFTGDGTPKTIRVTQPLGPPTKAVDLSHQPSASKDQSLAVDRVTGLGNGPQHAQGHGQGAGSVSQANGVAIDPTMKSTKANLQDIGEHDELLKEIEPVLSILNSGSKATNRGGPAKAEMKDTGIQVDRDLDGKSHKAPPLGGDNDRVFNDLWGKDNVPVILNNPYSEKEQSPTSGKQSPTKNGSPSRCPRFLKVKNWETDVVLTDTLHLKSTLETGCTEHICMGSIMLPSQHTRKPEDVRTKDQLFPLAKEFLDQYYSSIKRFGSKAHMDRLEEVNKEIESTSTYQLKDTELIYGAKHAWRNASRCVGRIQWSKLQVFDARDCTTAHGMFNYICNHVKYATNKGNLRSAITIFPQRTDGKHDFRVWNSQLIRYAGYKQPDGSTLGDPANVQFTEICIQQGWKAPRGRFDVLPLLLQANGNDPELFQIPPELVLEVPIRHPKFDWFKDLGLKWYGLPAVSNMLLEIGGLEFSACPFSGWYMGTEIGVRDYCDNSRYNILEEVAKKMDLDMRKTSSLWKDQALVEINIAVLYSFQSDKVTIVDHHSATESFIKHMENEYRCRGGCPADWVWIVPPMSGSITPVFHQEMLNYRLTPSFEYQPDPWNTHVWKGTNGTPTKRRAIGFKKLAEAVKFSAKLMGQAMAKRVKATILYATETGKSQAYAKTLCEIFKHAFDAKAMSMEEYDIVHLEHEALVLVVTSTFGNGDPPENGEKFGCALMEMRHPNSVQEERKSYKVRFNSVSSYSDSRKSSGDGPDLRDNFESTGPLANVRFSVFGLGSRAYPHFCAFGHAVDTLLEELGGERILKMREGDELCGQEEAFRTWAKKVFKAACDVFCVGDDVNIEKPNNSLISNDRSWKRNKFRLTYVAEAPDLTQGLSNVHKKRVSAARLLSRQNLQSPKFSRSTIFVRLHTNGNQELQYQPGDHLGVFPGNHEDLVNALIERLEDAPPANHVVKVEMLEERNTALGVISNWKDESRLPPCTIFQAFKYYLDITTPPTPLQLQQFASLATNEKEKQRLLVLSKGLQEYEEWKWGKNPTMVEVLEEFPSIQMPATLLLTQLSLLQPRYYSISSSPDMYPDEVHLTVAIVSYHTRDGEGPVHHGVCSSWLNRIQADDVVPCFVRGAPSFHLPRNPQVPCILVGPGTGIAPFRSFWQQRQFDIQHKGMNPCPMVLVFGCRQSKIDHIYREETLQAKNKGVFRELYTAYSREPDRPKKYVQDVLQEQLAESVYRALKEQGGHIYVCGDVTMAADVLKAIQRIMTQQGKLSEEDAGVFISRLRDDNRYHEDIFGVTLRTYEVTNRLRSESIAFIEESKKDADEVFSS

| Compound | IC50 (Calcitonin receptor) | IC50 [1] | Ki [1] | IC50 (Nitric oxide synthase 1) | IC50 (Adenosine receptor A3; cho-k1) | IC50 (Adenosine receptor A3; read-out: IC50) [nM] | Ki (Adenosine receptor A3; read-out: Ki) [nM] |
| --- | --- | --- | --- | --- | --- | --- | --- |
| N[C@@H](Cc1ccc(F)cc1)C(=O)O | Not Active | Not Active | Not Active | Not Active | Not Active |  |  |
| CCOC(=O)[C@H](CCc1ccccc1)N[C@@H](C)C(=O)N1Cc2ccccc2C[C@H]1C(=O)O | Not Active | Not Active | Not Active | Not Active | Not Active |  |  |
| CCOC(=O)[C@H](CCc1ccccc1)N[C@@H](C)C(=O)N1CCC[C@H]1C(=O)O | Not Active | Not Active | Not Active | Not Active | Not Active |  |  |
| C=C1/C(=C\C=C2/CCC[C@]3(C)[C@@H]([C@H](C)CCCC(C)C)CC[C@@H]23)C[C@@H](O)C[C@@H]1O [ALFACALCIDOL] | Not Active | Not Active | Not Active | Not Active | Not Active |  |  |
| CO[C@H]1[C@@H](O)[C@H](N)[C@@H](O[C@H]2O[C@H]([C@H](C)N)CC[C@H]2N)[C@H](O)[C@@H]1N(C)C(=O)CN [ASTROMICIN] | Not Active | Not Active | Not Active | Not Active | Not Active |  |  |
| [N-]=[N+]=CC(=O)OC[C@H](N)C(=O)O [AZASERINE] | Not Active | Not Active | Not Active | Not Active | Not Active |  |  |
| CC[C@H]1OC(=O)[C@H](C)[C@@H](O[C@H]2C[C@@](C)(OC)[C@@H](O)[C@H](C)O2)[C@H](C)[C@@H](O[C@@H]2O[C@H](C)C[C@H](N(C)C)[C@H]2O)[C@](C)(O)C[C@@H](C)CN(C)[C@H](C)[C@@H](O)[C@]1(C)O [AZITHROMYCIN] | Not Active | Not Active | Not Active | Not Active | Not Active |  |  |
| CC(C)C[C@H]1C(=O)N2CCC[C@H]2[C@]2(O)O[C@](NC(=O)[C@@H]3C=C4c5cccc6[nH]c(Br)c(c56)C[C@H]4N(C)C3)(C(C)C)C(=O)N12 [BROMOCRIPTINE] | Not Active | Not Active | Not Active | Not Active | Not Active |  |  |
| CS(=O)(=O)OCCCCOS(C)(=O)=O [BUSULFAN] | Not Active | Not Active | Not Active | Not Active | Not Active |  |  |
| COc1cc(CNC(=O)CCCC/C=C/C(C)C)ccc1O [CAPSAICIN] | Not Active | Not Active | Not Active | Not Active | Not Active |  |  |
| NC(=O)N1c2ccccc2C=Cc2ccccc21 [CARBAMAZEPINE] | Not Active | Not Active | Not Active | Not Active | Not Active |  |  |
| CCOC(=O)n1ccn(C)c1=S [CARBIMAZOLE] | Not Active | Not Active | Not Active | Not Active | Not Active |  |  |
| Oc1ccccc1O [CATECHOL] | Not Active | Not Active | Not Active | Not Active | Not Active |  |  |
| CO[C@@]1(NC(=O)CSCC#N)C(=O)N2C(C(=O)O)=C(CSc3nnnn3C)CS[C@@H]21 [CEFMETAZOLE] | Not Active | Not Active | Not Active | Not Active | Not Active |  |  |
| CN(C(=O)CCCOc1ccc2[nH]c(=O)ccc2c1)C1CCCCC1 [CILOSTAMIDE] | Not Active | Not Active | Not Active | Not Active | Not Active |  |  |
| Nc1nc(Cl)nc2c1ncn2[C@H]1C[C@H](O)[C@@H](CO)O1 [CLADRIBINE] | Not Active | Not Active | Not Active | Not Active | Not Active |  |  |
| CC[C@H]1OC(=O)[C@H](C)[C@@H](O[C@H]2C[C@@](C)(OC)[C@@H](O)[C@H](C)O2)[C@H](C)[C@@H](O[C@@H]2O[C@H](C)C[C@H](N(C)C)[C@H]2O)[C@](C)(OC)C[C@@H](C)C(=O)[C@H](C)[C@@H](O)[C@]1(C)O [CLARITHROMYCIN] | Not Active | Not Active | Not Active | Not Active | Not Active |  |  |
| CCC[C@@H]1C[C@@H](C(=O)N[C@@H]([C@H]2O[C@H](SC)[C@H](O)[C@@H](O)[C@H]2O)[C@H](C)Cl)N(C)C1 [CLINDAMYCIN] | Not Active | Not Active | Not Active | Not Active | Not Active |  |  |
| O=C(O)c1cc(=O)c2c(OCC(O)COc3cccc4oc(C(=O)O)cc(=O)c34)cccc2o1 [CROMOLYN] | Not Active | Not Active | Not Active | Not Active | Not Active |  |  |

| Compound | IC50 (Calcitonin receptor) | IC50 [1] | Ki [1] | IC50 (Nitric oxide synthase 1) | IC50 (Adenosine receptor A3; cho-k1) | IC50 (Adenosine receptor A3; read-out: IC50) [nM] | Ki (Adenosine receptor A3; read-out: Ki) [nM] |
| --- | --- | --- | --- | --- | --- | --- | --- |
| O=P1(N(CCCl)CCCl)NCCCO1 (centres undefined) [CYCLOPHOSPHAMIDE ANHYDROUS] | Not Active | Not Active | Not Active | Not Active | Not Active |  |  |
| CC(=O)O[C@]1(C(C)=O)CC[C@H]2[C@@H]3C=C(Cl)C4=CC(=O)[C@@H]5C[C@@H]5[C@]4(C)[C@H]3CC[C@@]21C [CYPROTERONE ACETATE] | Not Active | Not Active | Not Active | Not Active | Not Active |  |  |
| Nc1nc(N)nc(NC2CC2)n1 [CYROMAZINE] | Not Active | Not Active | Not Active | Not Active | Not Active |  |  |
| CCN[C@@H](C)Cc1cccc(C(F)(F)F)c1 [DEXFENFLURAMINE] | Not Active | Not Active | Not Active | Not Active | Not Active |  |  |
| C[C@H](C(=O)O)c1cccc(C(=O)c2ccccc2)c1 [DEXKETOPROFEN] | Not Active | Not Active | Not Active | Not Active | Not Active |  |  |
| CN1C(=O)CN=C(c2ccccc2)c2cc(Cl)ccc21 [DIAZEPAM] | Not Active | Not Active | Not Active | Not Active | Not Active |  |  |
| CN1C[C@H](C(=O)N[C@]2(C)O[C@@]3(O)[C@@H]4CCCN4C(=O)[C@H](Cc4ccccc4)N3C2=O)C[C@@H]2c3cccc4[nH]cc(c34)C[C@H]21 [DIHYDROERGOTAMINE] | Not Active |  |  | Not Active | Not Active |  |  |
| Cc1c(N(C)CS(=O)(=O)[O-])c(=O)n(-c2ccccc2)n1C.[Na+] [DIPYRONE SODIUM] | Not Active | Not Active | Not Active | Not Active | Not Active |  |  |
| CC(CCc1ccc(O)cc1)NCCc1ccc(O)c(O)c1 (centres undefined) [DOBUTAMINE] | Not Active | Not Active | Not Active | Not Active | Not Active |  |  |
| CCn1cc(C(=O)O)c(=O)c2cc(F)c(N3CCNCC3)nc21 [ENOXACIN] | Not Active | Not Active | Not Active | Not Active | Not Active |  |  |
| CCC(=O)O[C@H]1[C@H](O[C@@H]2[C@@H](C)[C@H](O[C@H]3C[C@@](C)(OC)[C@@H](O)[C@H](C)O3)[C@@H](C)C(=O)O[C@H](CC)[C@@](C)(O)[C@H](O)[C@@H](C)C(=O)[C@H](C)C[C@@]2(C)O)O[C@H](C)C[C@@H]1N(C)C [ERYTHROMYCIN PROPIONATE] | Not Active | Not Active | Not Active | Not Active | Not Active |  |  |
| C=C(CC)C(=O)c1ccc(OCC(=O)O)c(Cl)c1Cl [ETHACRYNIC ACID] | Not Active | Not Active | Not Active | Not Active | Not Active |  |  |
| CCOC(=O)C1=C(C)NC(C)=C(C(=O)OC)C1c1cccc(Cl)c1Cl (centres undefined) [FELODIPINE] | Not Active | Not Active | Not Active | Not Active |  | 1060 | 597 |
| CC(C(=O)O)c1ccc(-c2ccccc2)c(F)c1 (centres undefined) [FLURBIPROFEN] | Not Active | Not Active | Not Active | Not Active | Not Active |  |  |
| NC[C@@H]1O[C@H](O[C@H]2[C@@H](O)[C@H](O[C@@H]3[C@@H](O)[C@H](N)C[C@H](N)[C@H]3O[C@H]3O[C@H](CN)[C@@H](O)[C@H](O)[C@H]3N)O[C@@H]2CO)[C@H](N)[C@@H](O)[C@@H]1O [FRAMYCETIN] | Not Active | Not Active | Not Active | Not Active | Not Active |  |  |
| Cc1cnc(C(=O)NCCc2ccc(S(=O)(=O)NC(=O)NC3CCCCC3)cc2)cn1 [GLIPIZIDE] | Not Active | Not Active | Not Active | Not Active | Not Active |  |  |
| Cc1c(F)c(N2CCNC(C)C2)cc2c1c(=O)c(C(=O)O)cn2C1CC1 (centres undefined) [GREPAFLOXACIN] | Not Active | Not Active | Not Active | Not Active | Not Active |  |  |
| C/C=C\c1ccc(O)c(OC)c1 [ISOEUGENOL] | Not Active | Not Active | Not Active | Not Active | Not Active |  |  |
